From US6673902B2, “Cyclin D binding factor, and uses thereof” (St. Jude Children's Research Hospital, priority 1996, dated 2004)

Key:
32P-BS2 Probe = test: EMSA with 32P-BS2 probe on transfection lysates of NIH-3T3 fibroblasts; format: binding; conditions: EMSA, 32P-BS2 probe, lysates of transfected NIH-3T3 fibroblasts
Method: Double-stranded oligonucleotides containing potential DMP1 binding sites (BS1 and BS2) and mutated versions (M1-M4) (FIG. 5B) are end-labeled with ^32P using the Klenow fragment of DNA polymerase and α-^32P-dATP (6000 Ci/mmol; Dupont NEN) (8). Nuclear extracts from mouse NIH-3T3 or CTLL cells are prepared with buffer containing 0.4 M NaCl (2). Mammalian cell extracts (15 μg protein) or Sf9 lysates (corresponding to 5×10^2 infected cells) containing ˜4 ng recombinant DMP1 are mixed with 3 ng of ^32P-labeled probe (1×10^5 cpm) in 15 ul Binding buffer containing 2.5 μg of poly(dI-dC) and 2.5 μg BSA and incubated at 4° C. for 30 minutes. For competition experiments, the indicated amounts of unlabeled oligonucleotides are added to the reactions before addition of the labeled probe. In some experiments, a bacterially produced GST-Ets2 fusion protein containing the complete Ets2 DNA-binding domain (10) is used in place of Sf9 extracts containing recombinant DMP1. Protein-DNA complexes are separated on nondenaturing 4% polyacrylamide gels as described (8). Where indicated, antiserum to DMP1 together with 2.5 μg salmon testis DNA (Sigma; used to reduce nonspecific DNA binding activity caused by serum addition) is preincubated with extracts for 30 minutes at 4° C. prior to initiation of binding reactions. Immune complexes are either removed by adsorption to protein A-Sepharose beads (immunodepletion experiments) or are allowed to remain (“supershift” experiments).
A series of deletion mutants and a point mutant of DMP1, K319E, (in which the lysine at position 319 of SEQ ID NO:1 is replaced by a glutamic acid) were prepared and used to determine the DNA-binding domain of DMP1 by electrophoretic mobility shift assay (EMSA) using a ^32P labeled BS2 probe. The DNA-binding domain of DMP1 was mapped to a central region containing the three MYB repeats plus adjacent flanking sequences: a BstEII to NcoI fragment encoding amino acids 87-458 of SEQ ID NO:1 (Table 1). This region alone was necessary and sufficient for DNA binding.

[1] = tested on: DMP1-responsive promoter (pGL2BS2); test: Transactivation of luciferase reporter plasmid under control of a DMP1-responsive promoter in NIH-3T3 fibroblasts; format: cell-based, mouse; conditions: vector without insert set to 1.0
Description: Coexpression of a D-type cyclin with DMP1 overrides the ability of DMP1 to transactivate a luciferase gene under the control of an artificial DMP1-responsive promoter (Table 4), as well as the ability of DMP1 to inhibit cell growth.

NIH-3T3 fibroblasts = test: BrdU incorporation in transfected NIH-3T3 fibroblasts; format: cell-based, mouse; conditions: for % Cells BrdU Positive: Table 2, expression vector 3 μg/10 ml; for % Cells BrdU Positive in 10% FCS: nonstarved cells; for % Cells BrdU Positive in 0.1% FCS: starved cells
Method: BrdU is added to NIH-3T3 cells after the experimental treatment and the cells were incubated for twenty-two hours in DMEM plus 10% fetal calf serum (FCS). The cells were then stained for DMP1 expression and/or BrdU incorporation. The nucleic acids encoding the wildtype DMP1 and the deletion and point mutants had been constructed so as to express the corresponding proteins with Flag-tags. To stain for DMP1 expression, mouse monoclonal anti-Flag antibodies (12 μg/ml) [Kodak] were incubated with the cells in TBS-Ca^+ without FCS for one hour at room temperature. After washing the cells, horse anti-mouse biotinylated antibodies at a 1:500 dilution were added to the cells in TBS plus 5% FCS and incubated for 30 minutes at room temperature. After washing the cells, strefptavidin linked to Texas red [Amersham] was then added at a 1:500 dilution for 30 minutes at room temperature. To stain for BrdU incorporation, 1.5N HCl was added to the cells for ten minutes at room temperature to denature the DNA. After washing the cells, sheep anti-BrdU antibodies [Fitzgerald] at a 1:12 dilution were then added for one hour at room temperature. After washing the cells, rabbit FITC-conjugated anti-sheep antibodies [Vector] at 1:100 dilution was then incubated for 30 minutes at room temperature.
NIH-3T3 cells were placed on cover slides and transfected with the expression vectors (pFLEX-DMP1 or the corresponding vector containing the deletion or point mutants of mouse DMP1 plus or minus cyclin D or E) for fourteen hours. The cells were then washed twice and DMEM plus 10% FCS was added and the cells incubated for eight hours. Half of the cells were starved by washing twice with 0.1% FCS, and then incubated for twenty-four hours in 0.1% FCS in DMEM. The remaining cells were not starved but were incubated for twenty-four hours in DMEM plus 10% FCS without washing. BrdU was added to both groups of cells and the cells were incubated for twenty-two hours in DMEM plus 10% FCS.
The cells were then restimulated to enter the cell cycle synchronously with DMEM plus 10% FCS. At the same time, 5′-Bromo-2′ Deoxyuridine (BrdU) was added to the medium. The cells were fixed 22 hours later in methanol acetone (1:1) and stained for BrdU incorporation and DMP1 expression as described in the Materials and Methods.

[2] = expression vector 3 μg/10 ml, pGL2BS2 8 μg/10 ml
[3] = additive None, labeled 22 hours

Row | Substance | 32P-labeled Band (32P-BS2 Probe) | Luciferase Activity ([1]; Table 4, DMP1 coexpressed with the additive named as label (DMP1 row: no additive)) | Luciferase Activity [1, 2] | % Cells BrdU Positive (NIH-3T3 fibroblasts) [%] | % Cells BrdU Positive in 10% FCS (NIH-3T3 fibroblasts; [3]) [%] | % Cells BrdU Positive in 10% FCS (NIH-3T3 fibroblasts; additive cyclin D2) [%] | % Cells BrdU Positive in 10% FCS (NIH-3T3 fibroblasts; additive cyclin E) [%] | % Cells BrdU Positive in 0.1% FCS (NIH-3T3 fibroblasts; [3]) [%] | % Cells BrdU Positive in 0.1% FCS (NIH-3T3 fibroblasts; additive cyclin D2) [%] | % Cells BrdU Positive in 0.1% FCS (NIH-3T3 fibroblasts; additive cyclin E) [%]
1 | DMP1: murine cyclin D-associated myb-like transcription factor, 761 amino acids, SEQ ID NO:1 | Yes | 8.4 | 8.4 | 12 | 30 | 80 | 82 | 15 | 57 | 56
2 | M3: DMP1 deletion mutant (NcoI), amino acids 1-458 of SEQ ID NO:1 | Yes | – | 2.3 | 24 | – | – | – | – | – | –
